In PubChem BioAssay AID1259407 (Chemical Carcinogenesis Research Information System (CCRIS), 2018):
The source made the active and inactive calls. No rule for the calls is given here.

Tested on: CCRIS mutagenicity, Ames/micronucleus/aberration tests
Test: CCRIS mutagenicity studies
[1] = Test System: AMES SALMONELLA TYPHIMURIUM, Strain/Indicator: TA98, Metabolic Activation: NONE, Method: STANDARD PLATE
[2] = Test System: AMES SALMONELLA TYPHIMURIUM, Strain/Indicator: TA98, Metabolic Activation: RAT, LIVER, S-9, AROCLOR 1254, Method: STANDARD PLATE
[3] = Test System: AMES SALMONELLA TYPHIMURIUM, Strain/Indicator: TA98, Metabolic Activation: RAT, LIVER, S-9, KC500 OR PHENOBARBITAL, Method: LIQUID SUSPENSION
[4] = Test System: AMES SALMONELLA TYPHIMURIUM, Strain/Indicator: TA100, Metabolic Activation: NONE, Method: STANDARD PLATE
[5] = Test System: AMES SALMONELLA TYPHIMURIUM, Strain/Indicator: TA100, Metabolic Activation: RAT, LIVER, S-9, KC500 OR PHENOBARBITAL, Method: LIQUID SUSPENSION
[6] = Test System: AMES SALMONELLA TYPHIMURIUM, Strain/Indicator: TA98, Metabolic Activation: NONE, Method: PREINCUBATION
[7] = Test System: AMES SALMONELLA TYPHIMURIUM, Strain/Indicator: TA100, Metabolic Activation: NONE, Method: PREINCUBATION
[8] = Test System: AMES SALMONELLA TYPHIMURIUM, Strain/Indicator: TA1535, Metabolic Activation: NONE, Method: PREINCUBATION
[9] = Test System: AMES SALMONELLA TYPHIMURIUM, Strain/Indicator: TA1537, Metabolic Activation: NONE, Method: PREINCUBATION
[10] = Test System: AMES SALMONELLA TYPHIMURIUM, Strain/Indicator: TA98, Metabolic Activation: RAT, LIVER, S-9, AROCLOR 1254, Method: PREINCUBATION

`O=[N+]([O-])c1ccc2c3c(cccc13)CC2` was tested, and the mutagenic call [1] was “active; positive”, the mutagenic call [2] was “active; positive” and the mutagenic call [3] was “active; positive”. For the same compound, the mutagenic call [4] was “active; positive”, the mutagenic call (Test System: AMES SALMONELLA TYPHIMURIUM, Strain/Indicator: TA100, Metabolic Activation: RAT, LIVER, S-9, AROCLOR 1254, Method: STANDARD PLATE) was “active; positive” and the mutagenic call [5] was “active; positive”. For the same compound, the mutagenic call (Test System: E. COLI, Strain/Indicator: WP2 UVRA, Metabolic Activation: NONE, Method: STANDARD PLATE) was “inactive; negative” and the mutagenic call (Test System: E. COLI, Strain/Indicator: WP2 UVRA, Metabolic Activation: RAT, LIVER, S-9, Method: STANDARD PLATE) was “inactive; negative”.
For `CCN(CC)CC`, the mutagenic call (Test System: AMES SALMONELLA TYPHIMURIUM, Strain/Indicator: TA98, Metabolic Activation: HAMSTER, LIVER, S-9, AROCLOR 1254 (10%), Method: PREINCUBATION) was “inactive; negative”, the mutagenic call [6] was “inactive; negative” and the mutagenic call (Test System: AMES SALMONELLA TYPHIMURIUM, Strain/Indicator: TA98, Metabolic Activation: RAT, LIVER, S-9, AROCLOR 1254 (10%), Method: PREINCUBATION) was “inactive; negative”. The mutagenic call (Test System: AMES SALMONELLA TYPHIMURIUM, Strain/Indicator: TA100, Metabolic Activation: HAMSTER, LIVER, S-9, AROCLOR 1254 (10%), Method: PREINCUBATION) was “inactive; negative”, the mutagenic call [7] was “inactive; negative” and the mutagenic call (Test System: AMES SALMONELLA TYPHIMURIUM, Strain/Indicator: TA100, Metabolic Activation: RAT, LIVER, S-9, AROCLOR 1254 (10%), Method: PREINCUBATION) was “inactive; negative”. For the same compound, the mutagenic call (Test System: AMES SALMONELLA TYPHIMURIUM, Strain/Indicator: TA1535, Metabolic Activation: HAMSTER, LIVER, S-9, AROCLOR 1254 (10%), Method: PREINCUBATION) was “inactive; negative”, the mutagenic call [8] was “inactive; negative” and the mutagenic call (Test System: AMES SALMONELLA TYPHIMURIUM, Strain/Indicator: TA1535, Metabolic Activation: RAT, LIVER, S-9, AROCLOR 1254 (10%), Method: PREINCUBATION) was “inactive; negative”. The mutagenic call (Test System: AMES SALMONELLA TYPHIMURIUM, Strain/Indicator: TA1537, Metabolic Activation: HAMSTER, LIVER, S-9, AROCLOR 1254 (10%), Method: PREINCUBATION) was “inactive; negative”, the mutagenic call [9] was “inactive; negative” and the mutagenic call (Test System: AMES SALMONELLA TYPHIMURIUM, Strain/Indicator: TA1537, Metabolic Activation: RAT, LIVER, S-9, AROCLOR 1254 (10%), Method: PREINCUBATION) was “inactive; negative”.
For `C1=CC2=C3OC3=C3c4ccc5ccccc5c4CC(=C1)C23` (stereo not drawn), the mutagenic call [1] was “active; positive” and the mutagenic call [2] was “active; positive”.
In the case of `CC(=O)Oc1cc(C=O)cc2c1C(COC(N)=O)C1(OC(C)=O)ON2CC2C1N2C(C)=O` (stereo not drawn), the mutagenic call [6] is reported as “inactive; negative”, the mutagenic call (Test System: AMES SALMONELLA TYPHIMURIUM, Strain/Indicator: TA98, Metabolic Activation: RAT, LIVER, S-9, PHENOBARBITAL AND 5,6-BENZOFLAVONE, Method: PREINCUBATION) is reported as “inactive; negative” and the mutagenic call [7] is reported as “inactive; negative”. For the same compound, the mutagenic call (Test System: AMES SALMONELLA TYPHIMURIUM, Strain/Indicator: TA100, Metabolic Activation: RAT, LIVER, S-9, PHENOBARBITAL AND 5,6-BENZOFLAVONE, Method: PREINCUBATION) was “inactive; negative”, the mutagenic call (Test System: AMES SALMONELLA TYPHIMURIUM, Strain/Indicator: TA102, Metabolic Activation: NONE, Method: PREINCUBATION) was “inactive; negative” and the mutagenic call (Test System: AMES SALMONELLA TYPHIMURIUM, Strain/Indicator: TA102, Metabolic Activation: RAT, LIVER, S-9, PHENOBARBITAL AND 5,6-BENZOFLAVONE, Method: PREINCUBATION) was “active; positive”. For the same compound, the mutagenic call [8] was “inactive; negative”, the mutagenic call (Test System: AMES SALMONELLA TYPHIMURIUM, Strain/Indicator: TA1535, Metabolic Activation: RAT, LIVER, S-9, PHENOBARBITAL AND 5,6-BENZOFLAVONE, Method: PREINCUBATION) was “inactive; negative” and the mutagenic call [9] was “inactive; negative”. For the same compound, the mutagenic call (Test System: AMES SALMONELLA TYPHIMURIUM, Strain/Indicator: TA1537, Metabolic Activation: RAT, LIVER, S-9, PHENOBARBITAL AND 5,6-BENZOFLAVONE, Method: PREINCUBATION) was “inactive; negative”.
For `CN(C)C(=S)S`, the mutagenic call [4] was “active; positive” and the mutagenic call (Test System: AMES SALMONELLA TYPHIMURIUM, Strain/Indicator: TA100, Metabolic Activation: S-9 MIX, Method: STANDARD PLATE) was “inactive; negative”.
With `O=[N+]([O-])c1cccc(Cl)c1Cl` the mutagenic call (Test System: AMES SALMONELLA TYPHIMURIUM, Strain/Indicator: TA98, Metabolic Activation: HAMSTER, LIVER, S-9, AROCLOR 1254, Method: PREINCUBATION) was “inactive; negative”, the mutagenic call [6] was “inactive; negative” and the mutagenic call [10] was “inactive; negative”. For the same compound, the mutagenic call (Test System: AMES SALMONELLA TYPHIMURIUM, Strain/Indicator: TA100, Metabolic Activation: HAMSTER, LIVER, S-9, AROCLOR 1254, Method: PREINCUBATION) was “inactive; negative”, the mutagenic call [7] was “inactive; negative” and the mutagenic call [4] was “inactive; negative”. The mutagenic call (Test System: AMES SALMONELLA TYPHIMURIUM, Strain/Indicator: TA100, Metabolic Activation: RAT, LIVER, S-9, AROCLOR 1254, Method: PREINCUBATION) was “inactive; negative”, the mutagenic call (Test System: AMES SALMONELLA TYPHIMURIUM, Strain/Indicator: TA1535, Metabolic Activation: HAMSTER, LIVER, S-9, AROCLOR 1254, Method: PREINCUBATION) was “inactive; negative” and the mutagenic call [8] was “inactive; negative”. For the same compound, the mutagenic call (Test System: AMES SALMONELLA TYPHIMURIUM, Strain/Indicator: TA1535, Metabolic Activation: RAT, LIVER, S-9, AROCLOR 1254, Method: PREINCUBATION) was “inactive; negative”, the mutagenic call (Test System: AMES SALMONELLA TYPHIMURIUM, Strain/Indicator: TA1537, Metabolic Activation: HAMSTER, LIVER, S-9, AROCLOR 1254, Method: PREINCUBATION) was “inactive; negative” and the mutagenic call [9] was “inactive; negative”. For the same compound, the mutagenic call (Test System: AMES SALMONELLA TYPHIMURIUM, Strain/Indicator: TA1537, Metabolic Activation: RAT, LIVER, S-9, AROCLOR 1254, Method: PREINCUBATION) was “inactive; negative”.
With `CCn1c(N)nc2c3cccnc3cc(C)c21` the mutagenic call [10] was “active; positive”.
`Cc1cccc(N=Nc2ccc(N(C)C)cc2)c1` was tested, and the mutagenic call [3] was “active; positive”, the mutagenic call (Test System: AMES SALMONELLA TYPHIMURIUM, Strain/Indicator: TA98, Metabolic Activation: RAT, LIVER, S-9, N-BENZYLIMIDAZOLE, Method: PREINCUBATION) was “active; positive” and the mutagenic call [5] was “active; positive”. The mutagenic call (Test System: AMES SALMONELLA TYPHIMURIUM, Strain/Indicator: TA1538, Metabolic Activation: RAT, LIVER, S-9, PHENOBARBITAL, Method: STANDARD PLATE) was “active; positive”, the mutagenic call (Test System: UDS RODENT HEPATOCYTES, Strain/Indicator: THY INCORP (NON-S-PHASE), Method: AUTORADIOGRAPHY) was “active; positive” and the mutagenic call (Test System: UDS RODENT HEPATOCYTES, Strain/Indicator: THY INCORP (NON-S-PHASE), Method: LIQUID SCINTILLATION COUNTING) was “active; positive”.
With `CCCCCCCC(=O)Nc1snc2ccccc12` the mutagenic call [4] was “inactive; negative”, the mutagenic call (Test System: AMES SALMONELLA TYPHIMURIUM, Strain/Indicator: TA100, Metabolic Activation: S-9, Method: STANDARD PLATE) was “inactive; negative” and the mutagenic call (Test System: AMES SALMONELLA TYPHIMURIUM, Strain/Indicator: TA1537, Metabolic Activation: NONE, Method: STANDARD PLATE) was “inactive; negative”. The mutagenic call (Test System: AMES SALMONELLA TYPHIMURIUM, Strain/Indicator: TA1537, Metabolic Activation: S-9, Method: STANDARD PLATE) was “inactive; negative”.
